Data reported in patent publication US11472843B2, “Malacidins and methods of use” (The Rockefeller University, priority 2017, dated 2022).

Tests used:
[1] = test system: Methicillin-resistant Staphylococcus aureus strain MW2; assay: Rat cutaneous wound infection model; format: in vivo, Sprague Dawley rats; details: topical, 0.5 mg daily in 25 mM CaCl2
Method: Methicillin-resistant Staphylococcus aureus strain MW2 was grown in Mueller Hinton broth at 37° C. with shaking overnight. The culture was centrifuged, supernatant aspirated and the bacteria were gently washed once in sterile saline. The optical density was determined at 600 nm. The bacterial suspension was diluted to provide a challenge inoculum of approximately 500 CFU per wound in a volume of 0.05 ml in sterile 0.9% NaCl. The inoculum count was verified by viable counts on Mannitol Salt Agar plates spread with proper dilutions of the inoculum and incubated at 37° C. for 24-48 h. For the wound infection model, 8-week-old male (˜200 g) Sprague Dawley rats were given two wounds each. Two rats were used at each time point (day 1 and day 3) for each treatment group for a total of 4 rats (8 wounds) per drug. This sample size was statistically calculated on the basis of previous in-house wound burden studies comparing vehicle-treated groups with antibiotic controls. Rats were randomly selected into the treatment groups. […] At 1 day and 3 days post infection, the rats were humanely euthanized and wounds were excised and assessed for bacterial burdens by plating on MSA. […] Abnormal clinical signs were recorded if observed.

S. aureus COL = assay: MIC assay, S. aureus COL; format: cell-based, Staphylococcus aureus; details: β-lactams
Method: (§1) MIC assays were performed in duplicate in 96-well microtiter plates on the basis of the protocol recommended by the Clinical and Laboratory Standards Institute (Cockerill, 2012, Clinical and Laboratory Standards Institute). All presented data are the average of at least three independent assays. Stock solutions of malacidin or daptomycin (2 mg ml^−1 in H2O) were added to the first well in a row and serially diluted (twofold per transfer) across the microtiter plate. CaCl2 was supplemented to media at a final concentration of 15 mM and fetal bovine serum (ATCC) was added to media (1:10) to test the effect of serum. Overnight cultures of bacteria were diluted 5,000-fold, and 50 μl was used as an inoculum in each well. MIC values were determined by visual inspection after 18 h incubation (30° C., static growth). For the enhanced calcium titration experiments, standard MIC assays were performed with methicillin-resistant Staphylococcus aureus (MRSA) PFGE strain type USA300 in media supplemented with CaCl2 at: 25.0, 18.8, 14.1, 7.03, 3.52, 2.50, 1.76, 0.880, 0.440, 0.250 and 0 mM. To assess the effects of monovalent and divalent cations on malacidin activity, standard MIC assays were performed with MRSA USA300 in media supplemented with 15 mM CaCl2, MgCl2, MnCl2, ZnCl2, SrCl2, NaCl and KCl. To evaluate the effects of pulmonary surfactants on activity against a community-acquired pneumonia-causing pathogen, standard MIC assays were performed with Streptococcus pneumoniae TCH8431 in media supplemented with both 15 mM […] and Survanta (beractant) at a final concentration of 5, 1, 0.5, 0.25 or 0% (volume/volume (v/v) percent).

[2] = Complex formation with cell wall precursors (TLC mobility shift), C55-P; format: binding; details: 1 nmol precursor, 0.5 nmol antibiotic
Method: Binding of malacidin to C55-P and lipid II was evaluated by incubating 1 nmol of each purified precursor with 0.5 nmol of malacidin or daptomycin in 100 mM Tris-HCl, pH 7.5, 0.1% Triton X-100, 13 mM MgCl2, and with or without 25 mM CaCl2, for 60 min at 37° C. Subsequently, the mixture was extracted twice with n-BuOH/6 M pyridinium acetate buffer, pH 4.2 (3:1, v/v). The butanol fraction was evaporated and the residue was dissolved in CHCl3/methanol (1:1, v/v). The resuspension was analysed for the loss of unbound malacidin or daptomycin to a complex by TLC analysis using chloroform/methanol/water/ammonia (88:48:10:1, v/v/v/v) as the solvent and detection by 254/366 nm visualization. Experiments were performed with biological replicates.

[3] = test system: Streptococcus pneumoniae TCH8431; assay: MIC assay, S. pneumoniae; format: cell-based
Method: as §1

[4] = test system: Cryptococcus neoformans ATCC 32045; assay: MIC assay, C. neoformans; format: cell-based
Method: as §1

[5] = test system: Klebsiella pneumonia ATCC 10031; assay: MIC assay, Klebsiella pneumonia; format: cell-based
Method: as §1

S. aureus NRS108 = assay: MIC assay, S. aureus NRS108; format: cell-based, Staphylococcus aureus; details: β-lactams
Method: as §1

[6] = test system: red blood cell (5% sheep blood agar plates); format: cell-based
Method: Cytotoxicity against human cell lines was tested using an ATP release assay, CelITiter-Glo (Promega), according to the manufacturer's instructions. HEK293 cells (293FT, Thermo Fisher Scientific, no. R700-07) and MRC5 cells (ATCC CCL-171) were grown in complete DMEM media supplemented with 10% FBS, and were inspected visually for authentication and tested for mycoplasma contamination using a MycoAlert detection kit (Lonza). Cells were grown to confluence, trypsinized, counted and plated in 384-well cell culture plates at an appropriate density (2,500 cells per well for HEK293 and 1000 cells per well for MRC5). The test compound was added 24 h later in the presence of calcium, and viability was determined after 4.5 h of incubation. Experiments were performed with biological replicates. Haemolytic activity was evaluated by a red blood cell disc diffusion assay. Twenty-microlitre stocks of malacidin A and Triton X-100 were infused on filter discs, dried completely and then overlaid on 5% sheep blood agar plates (Hardy Diagnostics). The plates were incubated for 24 h at 20° C., and then checked for lysis.

For malacidin A, the “Bacterial burden in the wounds” value ([1]; 24 hours post infection) was “no observed bacterial burdens”, the “Bacterial burden in the wounds” value ([1]; 72 hours post infection) was “no observed bacterial burdens” and the MIC (S. aureus COL; S. aureus COL, 15 mM CaCl2) was 0.2-0.8 μg m1^−1. For the same substance, the MIC (S. aureus COL; Staphylococcus aureus COL) was 0.2 to 0.8 µg/mL, the “Sequestration of C55-P (TLC mobility shift)” value [2] was “did not sequester C55-P” and the “Activity against S. pneumoniae in the presence of pulmonary surfactants” value ([3]; 15 mM CaCl2 and Survanta (beractant) 0-5% v/v) was “largely unaffected”. For the same substance, the MIC ([3]; S. pneumoniae, 15 mM CaCl2) was 0.8-2.0 μg m1^−1, the MIC ([3]; Streptococcus pneumoniae TCH8431) was 0.1 to 0.2 µg/mL and the MIC ([4]; C. neoformans, 15 mM CaCl2) was over 100 μg m1^−1. For the same substance, the MIC ([4]; Cryptococcus neoformans ATCC 32045) was over 100 µg/mL, the MIC [5] was over 100 µg/mL and the MIC (S. aureus NRS108; S. aureus NRS 108, gentamicin, kanamycin, 15 mM CaCl2) was 0.2-0.8 μg m1^−1. For the same substance, the MIC (S. aureus NRS108; Staphylococcus aureus NRS108, Gentamicin, Kanamycin) was 0.2 to 0.8 µg/mL and the Haemolytic activity [6] was “no hemolytic effects”.
